# Earlier results in US6943197B2, “Topical administration of pharmacologically active bases in the treatment of inflammatory dermatoses” (priority 2002, dated 2005).
# Read-outs that look alike come from different tables or passages of the source.
# Experiments:
# [1] = for pH of Aqueous Solution (alkalinity in words): no concentration, result in words
# [2] = forms Ca(OH)2
SMILES,pH of Aqueous Solution ([1]; concentration not given),other results
"N.N.O=P(O)(O)O [Ammonium phosphate, dibasic]",˜8,
[O]=[Ca] [Calcium oxide],,"Solubility in water [2]: Soluble in water, Form"
[O]=[Mg] [Magnesium oxide],,pH of Aqueous Solution ([1]; saturated solution in water): 10.3
O=C([O-])CC(O)(CC(=O)[O-])C(=O)[O-].[K+].[K+].[K+] [Potassium citrate],˜8.5,
"O=P([O-])([O-])O.[K+].[K+] [Potassium phosphate, dibasic]",,pH of Aqueous Solution (alkalinity in words) [1]: Aqueous solution is slightly
"CC(=O)[O-].[Na+] [Sodium acetate, anhydrous]",,pH of Aqueous Solution ([1]; 0.1 N): ˜8.9 (0.1 N)
"CC(=O)[O-].O.O.O.[Na+] [Sodium acetate, tribydrate]",,pH of Aqueous Solution ([1]; 0.1 N): 8.9 (0.1 N)
O=C([O-])[O-].[Na+].[Na+] [Sodium carbonate anhydrous],˜11.6,
O=B[O-].[Na+] [Sodium metaborate],,pH of Aqueous Solution (alkalinity in words) [1]: Strongly alkaline
"O.O.O=P([O-])([O-])O.[Na+].[Na+] [Sodium phosphate, dibasic, dihydrate]",˜9.5,
"O.O.O.O.O.O.O.O.O.O.O.O.O=P([O-])([O-])O.[Na+].[Na+] [Sodium phosphate, dibasic, dodecahydrate]",˜9.5,
"O.O.O.O.O.O.O.O=P([O-])([O-])O.[Na+].[Na+] [Sodium phosphate, dibasic, heptahydrate]",˜9.5,
"O=P([O-])([O-])O.[Na+].[Na+] [Sodium phosphate, dibasic]",˜9.5,
"O.O.O.O.O.O.O.O.O.O.O.O.O=P([O-])([O-])[O-].[Na+].[Na+].[Na+] [Sodium phosphate, tribasic dodecahydrate]",,pH of Aqueous Solution ([1]; 1.0% (1%)): 11.9 (1.0%)
